For 28 compounds, Ki results are on record in patent US11071721B2, “Bicyclic amide compounds and methods of use thereof” (Genentech, Inc., priority 2016, dated 2021).

The test addresses human RIP1 kinase domain (2-375) (Homo sapiens (Human), UniProt Q13546). The test can be described thus: RIP1 kinase inhibition assay (Transcreener ADP biochemical enzyme assay). The following applies: Ki app (Morrison tight-binding fit); 50 nM enzyme, 50 uM ATP, 2 hours incubation, fluorescence polarization. As to the method:
RIP1 Kinase Inhibition Assays (Biochemical Assay):
The compounds of the present invention were tested for their capacity to inhibit RIP K activity as described below.
Enzyme assay: The ability of the receptor interacting protein kinase (RIPK1) to catalyze the hydrolysis of adenosine-5′-triphosphate (ATP) is monitored using the Transcreener ADP (adenosine-5′-diphosphate) assay (BellBrook Labs). Purified human RIP1 kinase domain (2-375) (50 nM) derived from a baculovirus-infected insect cell expression system is incubated with test compounds for 2 hours in 50 mM Hepes buffer (pH 7.5) containing 30 mM MgCl2, 1 mM dithiothreitol, 50 uM ATP, 0.002% Brij-35, and 0.5% dimethyl sulfoxide (DMSO). Reactions are quenched by the addition of 1× Bell Brooks Stop buffer B (20 mM Hepes (ph7.5), 40 mM ethylenediaminetetraacetic acid and 0.02% Brij-35) containing an additional 12 mM EDTA and 55 ug/mL ADP2 antibody and 4 nM ADP-AlexaFluor® 633 tracer. The tracer bound to the antibody is displaced by the ADP generated during the RIP1K reaction, which causes a decrease in fluorescence polarization that is measured by laser excitation at 633 nm with a FP microplate reader M1000. Fractional activity was plotted against test article concentration. Using Genedata Screener software (Genedata; Basel, Switzerland), the data were fit to the tight-binding apparent inhibition constant (Ki^app) Morrison equation [Williams, J. W. and Morrison, J. F. (1979) The kinetics of reversible tight-binding inhibition. Methods Enzymol 63: 437-67]. The following equation was used to calculate fractional activity and Ki^app:
[formula] where [E]T and [I]T are the total concentrations of active enzyme and test article, respectively.
On the technique in general: In fluorescence polarisation assays a small probe gives low polarisation when free and higher when bound to something large.

human RIP1 kinase domain (2-375), sequence (Q13546 2-375): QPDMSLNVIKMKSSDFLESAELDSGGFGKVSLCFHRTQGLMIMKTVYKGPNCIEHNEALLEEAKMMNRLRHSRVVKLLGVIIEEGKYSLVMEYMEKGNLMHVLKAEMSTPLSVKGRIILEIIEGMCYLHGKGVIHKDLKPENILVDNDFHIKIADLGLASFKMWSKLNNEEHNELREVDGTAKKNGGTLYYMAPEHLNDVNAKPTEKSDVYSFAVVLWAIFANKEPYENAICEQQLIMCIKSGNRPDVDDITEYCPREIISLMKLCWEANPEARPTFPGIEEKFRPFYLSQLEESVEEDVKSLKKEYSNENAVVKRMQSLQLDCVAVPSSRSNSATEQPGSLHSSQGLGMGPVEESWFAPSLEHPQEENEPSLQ

For the compound `C[C@H]1[C@H](C(F)(F)F)CCN1C(=O)c1nc2n(n1)[C@H](c1ccccc1)C[C@@H]2F` (racemic) [Example 85, [rac-(5S,7S)-7-fluoro-5-phenyl-6,7-dihydro-5H-pyrrolo[1,2-b][1,2,4]triazol-2-yl]-[rac-(2S,3R)-2-methyl-3-(trifluoromethyl)pyrrolidin-1-yl]methanone], the Ki turned out to be 330 nM. In turn, `O=C(c1nc2n(n1)CCC2c1ccccc1)N1CC(F)(F)C1` (racemic) [Example 4, (3,3-difluoroazetidin-1-yl)-(7-phenyl-6,7-dihydro-5H-pyrrolo[1,2-b][1,2,4]triazol-2-yl)methanone] yielded a Ki of 205 nM. For `O=C(c1nc2n(n1)C(c1ccccc1F)CC2)N1CCC1` (racemic) [Example 22, Azetidin-1-yl-[5-(2-fluorophenyl)-6,7-dihydro-5H-pyrrolo[1,2-b][1,2,4]triazol-2-yl]methanone] the value was 511 nM; for `O=C(c1nc2n(n1)[C@H](c1ccccc1)CC2)N1CC(F)(F)C1` (stereo in doubt) [Example 31, (3,3-difluoroazetidin-1-yl)-[rac-(5S)-5-phenyl-6,7-dihydro-5H-pyrrolo[1,2-b][1,2,4]triazol-2-yl]methanone], 7100 nM; for `O=C(c1nc2n(n1)[C@@H](c1ccccc1)C[C@H]2F)N1CC2C(C1)C2(F)F` (mixture of isomers) [Example 100, (6,6-difluoro-3-azabicyclo[3.1.0]hexan-3-yl)-[rac-(5R,7R)-7-fluoro-5-phenyl-6,7-dihydro-5H-pyrrolo[1,2-b][1,2,4]triazol-2-yl]methanone], 270 nM.

`O=C(c1nc2n(n1)[C@H](c1ccccc1)C[C@@H]2F)N1CCc2ccncc2C1` (racemic) [Example 88, 3,4-dihydro-1H-2,7-naphthyridin-2-yl-[rac-(5S,7S)-7-fluoro-5-phenyl-6,7-dihydro-5H-pyrrolo[1,2-b][1,2,4]triazol-2-yl]methanone] returned a Ki of 54 nM. For `O=C(c1nc2n(n1)[C@H](c1ccccc1)C[C@@H]2F)N1CCC(F)(F)C1` (stereo in doubt) [Example 98, (3,3-difluoropyrrolidin-1-yl)-[rac-(5S,7S)-7-fluoro-5-phenyl-6,7-dihydro-5H-pyrrolo [1,2-b][1,2,4]triazol-2-yl]methanone] the value was 36 nM; for `O=C(c1nc2n(n1)C(c1ccccc1)CC2)N1CC(F)C1` (racemic) [Example 18, (3-fluoroazetidin-1-yl)-(5-phenyl-6,7-dihydro-5H-pyrrolo[1,2-b][1,2,4]triazol-2-yl)methanone], 343 nM; for `O=C(c1nc2n(n1)[C@H](c1ccccc1)C[C@@H]2F)N1CCCc2ccccc2C1` (racemic) [Example 94, [rac-(5S,7S)-7-fluoro-5-phenyl-6,7-dihydro-5H-pyrrolo[1,2-b][1,2,4]triazol-2-yl]-(1,3,4,5-tetrahydro-2-benzazepin-2-yl)methanone], 160 nM. For `O=C(c1nc2n(n1)[C@H](c1ccccc1)C[C@@H]2F)N1CC(F)(F)CC1CO` (mixture of isomers) [Example 72, [4,4-difluoro-2-(hydroxymethyl)pyrrolodin-1-yl]-[rac-(5S,7S)-7-fluoro-5-phenyl-6,7-dihydro-5H-pyrrolo[1,2-b] [1,2,4]triazol-2-yl]methanone] the value was 3900 nM. Then `O=C(c1nc2n(n1)[C@H](c1ccccc1)C[C@@H]2F)N1CCc2ncccc2C1` (racemic) [Example 89, 7,8-dihydro-5H-1,6-naphthyridin-6-yl-[rac-(5S,7S)-7-fluoro-5-phenyl-6,7-dihydro-5H-pyrrolo[1,2-b][1,2,4]triazol-2-yl]methanone], with 130 nM; and `O=C(c1nc2n(n1)[C@@H](c1ccccc1F)CC2)N1CCC1` (single isomer, unassigned) [Example 12], with 137 nM; and `CCC1CN(C(=O)c2nc3n(n2)C(c2ccccc2)CC3)C1` (racemic) [Example 21, (3-ethylazetidin-1-yl)-(5-phenyl-6,7-dihydro-5H-pyrrolo[1,2-b][1,2,4]triazol-2-yl)methanone], with 1360 nM. In the case of `O=C(c1nc2n(n1)[C@H](c1ccccc1)C[C@@H]2F)N1CCC(C(F)(F)F)n2nccc21` (mixture of isomers) [Example 81, [rac-(5S,7S)-7-fluoro-5-phenyl-6,7-dihydro-5H-pyrrolo[1,2-b][1,2,4]triazol-2-yl]-[7-(trifluoromethyl)-6,7-dihydro-5H-pyrazolo [1,5-a]pyrimidin-4-yl]methanone], the Ki came to 250 nM. Then `O=C(c1nc2n(n1)C(c1ccccc1F)CC2)N1CC(F)C1` (racemic) [Example 24, (3-fluoroazetidin-1-yl)-[5-(2-fluorophenyl)-6,7-dihydro-5H-pyrrolo[1,2-b][1,2,4]triazol-2-yl]methanone], with 194 nM.

On to `O=C(c1nc2n(n1)[C@H](c1ccccc1)C[C@@H]2F)N1CCC[C@@H]1C(F)(F)F` (racemic) [Example 83, [rac-(5S,7S)-7-fluoro-5-phenyl-6,7-dihydro-5H-pyrrolo[1,2-b][1,2,4]triazol-2-yl]-[rac-(2R)-2-(trifluoromethyl)pyrrolidin-1-yl]methanone], for which the Ki was found to be 350 nM.

`CC1c2c(F)cccc2CCN1C(=O)c1nc2n(n1)[C@H](c1ccccc1)C[C@@H]2F` (mixture of isomers) [Example 96, (8-fluoro-1-methyl-3,4-dihydro-1H-isoquinolin-2-yl)-[rac-(5S,7S)-7-fluoro-5-phenyl-6,7-dihydro-5H-pyrrolo[1,2-b][1,2,4]triazol-2-yl]methanone] gave a Ki of 57 nM.

Compound `O=C(c1cc2n(n1)CCOC2c1ccccc1F)N1CC(F)(F)C1` (racemic) [Example 37, (3,3-difluoroazetidin-1-yl)-[4-(2-fluorophenyl)-6,7-dihydro-4H-pyrazolo[5,1-c][1,4]oxazin-2-yl]methanone] showed a Ki of 1400 nM. Then `O=C(c1nc2n(n1)[C@@H](c1ccccc1)C[C@H]2F)N1CCC[C@H]1C(F)F` (racemic) [Example 64, [rac-(2S)-2-(difluoromethyl)pyrrolidin-1-yl]-[rac-(5R,7R)-7-fluoro-5-phenyl-6,7-dihydro-5H-pyrrolo[1,2-b][1,2,4]triazol-2-yl]methanone], with 4 nM; and `COC1CN(C(=O)c2nc3n(n2)C(c2ccccc2)CC3)C1` (racemic) [Example 17, (3-methoxyazetidin-1-yl)-(5-phenyl-6,7-dihydro-5H-pyrrolo[1,2-b][1,2,4]triazol-2-yl)methanone], with 1370 nM.

For the compound `O=C(c1nc2n(n1)[C@H](c1ccccc1)C[C@@H]2F)N1CCn2ccnc2C1` (racemic) [Example 68, 6,8-dihydro-5H-imidazo[1,2-a]pyrazin-7-yl-[rac-(5S,7S)-7-fluoro-5-phenyl-6,7-dihydro-5H-pyrrolo[1,2-b][1,2,4]triazol-2-yl]methanone], the Ki was 49 nM.

In turn, `O=C(c1nc2n(n1)[C@H](c1ccccc1)C[C@@H]2F)N1CC(F)(F)C[C@H]1CF` (racemic) [Example 73, [rac-(2S)-4,4-difluoro-2-(fluoromethyl)pyrrolidin-1-yl]-[rac-(5S,7S)-7-fluoro-5-phenyl-6,7-dihydro-5H-pyrrolo[1,2-b] [1,2,4]triazol-2-yl]methanone] returned a Ki of 82 nM. `O=C(c1nc2n(n1)CC[C@H]2c1ccccc1)N1CC(F)(F)C1` (single isomer, unassigned) [Example 15] gave a Ki of 66 nM. For `O=C(c1nc2n(n1)[C@@H](c1ccccc1)C[C@H]2F)N1CCC1` (racemic) [Example 104, azetidin-1-yl-[rac-(5R,7R)-7-fluoro-5-phenyl-6,7-dihydro-5H-pyrrolo [1,2-b][1,2,4]triazol-2-yl]methanone] the value was 31 nM; for `O=C(c1nc2n(n1)[C@H](c1ccccc1)C[C@@H]2F)N1CCc2cnccc2C1` (racemic) [Example 75, 3.4-dihydro-1H-2,6-naphthyridin-2-yl-[rac-(5S,7S)-7-fluoro-5-phenyl-6,7-dihydro-5H-pyrrolo[1,2-b][1,2,4]triazol-2-yl]methanone], 290 nM. Then `O=C(c1nc2n(n1)[C@@H](c1ccccc1)C[C@H]2F)N1CCC(F)(F)C1` (stereo in doubt) [Example 54, (3,3-difluoropyrrolidin-1-yl)-[rac-(5R,7R)-7-fluoro-5-phenyl-6,7-dihydro-5H-pyrrolo [1,2-b][1,2,4]triazol-2-yl]methanone], with 11 nM; and `O=C(c1nc2n(n1)[C@@H](c1ccccc1)C[C@H]2F)N1CC2CC2C1` (mixture of isomers) [Example 101, 3-azabicyclo[3.1.0]hexan-3-yl-[rac-(5R, 7R)-7-fluoro-5-phenyl-6,7-dihydro-5H-pyrrolo[1,2-b][1,2,4]triazol-2-yl] methanone], with 82 nM; and `O=C(c1nc2n(n1)[C@H](c1ccccc1)C[C@@H]2F)N1CCCC1C(F)(F)F` (mixture of isomers) [Example 84, [rac-(5S,7S)-7-fluoro-5-phenyl-6,7-dihydro-5H-pyrrolo[1,2-b][1,2,4]triazol-2-yl]-[2-(trifluoromethyl)pyrrolidin-1-yl]methanone], with 300 nM.
